Consider 2 molecules from publication PMC11239005, “Preclinical studies of RA475, a guanidine-substituted spirocyclic candidate RPN13/ADRM1 inhibitor for treatment of ovarian cancer” (PLOS ONE, 2024).

For orientation: fraction unbound means free concentration divided by total concentration. A high value points to much free substance.

One data set concerns MDA-MB-468 cells. The data set is described as follows: Surface Annexin V display by flow cytometry, MDA-MB-468. It is filed as cell-based. As to conditions: MDA-MB-468, 12 h; RA475 1 or 2 μM, ixazomib 1 μM. The procedure:
The percentage of cells initiating apoptosis was assessed with the annexin V FITC assay kit. The cells (2 × 10^5 cells/well) were treated with the described compounds at selected concentrations for 12 h or 16 h, as indicated. The cells were then collected, washed with PBS, resuspended in 100 μL of annexin V-FITC and 7-AAD dual-stain solution (3 μL Annexin V and 3 μL 7AAD, Catalog Number; 559763-BD bioscience), and incubated 20 min in the dark. The samples were then analyzed via flow cytometry using FlowJo V10 software. All experiments were repeated three times.
Supplementary file pone.0305710.s006.tif: S6 Fig RA475 induced apoptosis in a triple negative breast cancer cell line. […] (TIF)
Background: Flow cytometry measures light scatter and fluorescence of single cells or particles in a stream.

The subject of another data set is 4UbFL in HCC1806 cells. The data set can be described thus: 4UbFL reporter assay, HCC1806. It counts as cell-based. As to conditions: HCC1806 stably expressing 4UbFL, 4 h. The procedure: Sub-confluent cultures of cells were transfected with 4UbFL plasmid using TransIT 2020 reagent (Mirus Bio). Cells were seeded at 10,000 cells/well in 96-well plates 48 h post transfection, and incubated with compounds or vehicle (DMSO) at the doses and for the times indicated. Luciferase activity in cell lysate was determined with a luciferase assay kit (Promega) according to the manufacturer’s instructions. Bioluminescence was measured using a Glomax Multidetection system (Promega).
Fig 3 Impact of RA475 on proteasome function. […] Actin was used as loading control. […] After a 4 h incubation, the cells were lysed and the luciferase activity in each cell lysate was determined with a luciferase assay kit (Promega) according to the manufacturer’s instructions. Bioluminescence was measured by using a luminometer (Glomax Multidetection system, Promega) E) A patch was shaved of hair on one leg of CD-1 mice, and 10 μg 4UbFL plasmid in 20 μL of PBS was injected into the quadriceps femoralis muscle followed immediately by injection of the 2 Needle Array to 5 mm depth encompassing the injection site and square wave electroporation (ElectroSquarePorator 833, BTX-2 Needle array 5mm gap, Harvard apparatus) delivered as eight pulses at 106V for 20 ms with 200 ms intervals. […] Equally sized areas were analyzed using Living Image 2.20 software. […]

Data set [1] is described as follows: Stability in human plasma. As to conditions: 10 μM, 1 h at 37°C. It counts as in vitro ADME. The procedure: (§1) Human and mouse liver microsomes and NADPH regenerating system solutions were purchased from Corning Life Sciences (Tewsbury, MA). Human and mouse K2EDTA-treated plasma was purchased from BioIVT (Westbury, NY). Metabolic studies in liver microsomes (0.125 mg/mL) were conducted in 1x PBS (pH 7.4), NADPH-generating system, and 10 μM RA475 in a final volume of 250 μL. An incubation mixture with or without NADPH-generating system, as well as a neat solution prepared without microsomes and NADPH-generating system was used. RA475 was added at the same concentration level into human and mouse EDTA plasma. All reactions were initiated with the addition of RA475. Incubations were performed in glass tubes maintained at 37°C in a shaker bath. At 0, 30, and 60 min, 10 μL samples were withdrawn from the reaction mixture, and 0.5 mL of acetonitrile containing internal standard was added to each. Samples were vortex-mixed and subjected to centrifugation for 5 min at 1430 x g. A 10 μL aliquot of the supernatant was injected onto the LC-MS/MS instrument for qualitative analysis using a temperature-controlled autosampling device operating at 5°C (See Pharmacokinetic section).

Data set [2] can be described thus: Mouse plasma protein binding, equilibrium dialysis. It is filed as in vitro ADME. As to conditions: pH 7.4, dialysis 5 h. The procedure: The assay was performed in a multiple-use 96-well dialysis unit (HTD96b dialyzer). Each individual well unit consisted of 2 chambers separated by a vertically aligned dialysis membrane of predetermined pore size (MWCO 12–14 kDa). 120 μL of non-diluted plasma spiked with the compound (1 μM, final DMSO concentration 1%) was added to one chamber, and the same volume of PBS buffer pH 7.4 to the other chamber. The HTD96b dialyzer was covered with adhesive sealing film and incubated 5 h at 37°C while shaking at 100 rpm. For sample preparation, an aliquot of the contents of each chamber was mixed with the same volume of the blank opposite matrix. In order to define non-specific loss of the compound during this assay, a standard solution was created by mixing an aliquot of spiked plasma with blank buffer without dialysis. Two aliquots of the standard solution were incubated at 37°C, shaking at 100 rpm for 5 h (recovery samples). The other two aliquots were immediately diluted with acetonitrile and stored at 4°C until analysis (stability samples). All samples were diluted 5-fold with internal standard diluted in 100% methanol with subsequent plasma proteins sedimentation by centrifuging at 6000 rpm for 5 minutes. Supernatants were analyzed using LC-MS/MS. The percentage of plasma protein bound compound, recovery and stability were calculated using following equations. […]
In general terms: In equilibrium dialysis only unbound substance equilibrates across the membrane.

The nature of data set [3]: Stability in human liver microsomes. As to conditions: with or without NADPH, over 1 h. It is filed as in vitro ADME. The procedure:
as §1
For orientation: Liver microsomes are vesicles of endoplasmic reticulum, rich in cytochrome P450 enzymes.

For data set [4] the following is noted: 1 h; Up284 not in this paper's method, no reference at the place; cited from earlier work.

Bounds are passed on as bounds.

`Cl.Cl.N#Cc1ccc(/C=C2/C(=O)/C(=C/c3ccc(C#N)cc3)C23CCN(C(=N)N)CC3)cc1` [RA475, 1,3-bis((E)-4-cyanobenzylidene)-2-oxo-7-azaspiro[3.5]nonane-7-carboximidamide dihydrochloride]: in the data set on MDA-MB-468 cells, the “apoptosis by surface Annexin V display” value was “initiated apoptosis”. In addition, the 4UbFL bioluminescence signal result in the data set with 4UbFL in HCC1806 cells is “dose dependent increases in bioluminescence signal”. Further, the stability in plasma entry in data set [1] is on record as “did not degrade”. The molecule also returned a fraction unbound at 5 h, 1 μM in data set [2] of under 0.01. For the same molecule, the “degradation in liver microsomes” value in data set [3] is on record as under 10%.

`N#Cc1ccc(/C=C2/C(=O)/C(=C/c3ccc(C#N)cc3)C23CCNCC3)cc1` [Up284, reference compound]: the “present after 1 h in liver microsomes” value in data set [4] is 52%.
